US10472352B2, “Rac inhibitors” (Geneyus LLC, priority 2017, dated 2019)
Where two headings read alike, the source gives them in different places.

Tested on: BT474 breast cancer cells
Assay: BT474 Four (4) Day Cell Viability Assay
Type: cell-based
Settings: Homo sapiens, BT-474, 96 h, BT474, 4 days, read-out: cellular viability; for viability at 7.5 µM: 32661 7.5 μM; for viability at 10 µM: 32661 10 μM
Procedure: BT474 breast cancer cells that are Estrogen Receptor Positive and HER2+ were grown in 5% cFBS. 5,000 cells were seeded into each well of a 96-well plate and treated with escalating doses of lapatinib, fulvestrant, and 32661.

[1] = fulvestrant 0.0 nM, lapatinib 0.0 nM
[2] = fulvestrant 0.0 nM, lapatinib 6.9 nM
[3] = fulvestrant 0.0 nM, lapatinib 20.6 nM
[4] = fulvestrant 0.0 nM, lapatinib 61.7 nM
[5] = fulvestrant 0.0 nM, lapatinib 185.2 nM
[6] = fulvestrant 0.0 nM, lapatinib 555.6 nM
[7] = fulvestrant 0.0 nM, lapatinib 1666.7 nM
[8] = fulvestrant 0.0 nM, lapatinib 3333.0 nM
[9] = fulvestrant 6.9 nM, lapatinib 0.0 nM
[10] = fulvestrant 6.9 nM, lapatinib 6.9 nM
[11] = fulvestrant 6.9 nM, lapatinib 20.6 nM
[12] = fulvestrant 6.9 nM, lapatinib 61.7 nM
[13] = fulvestrant 6.9 nM, lapatinib 185.2 nM
[14] = fulvestrant 6.9 nM, lapatinib 555.6 nM
[15] = fulvestrant 6.9 nM, lapatinib 1666.7 nM
[16] = fulvestrant 6.9 nM, lapatinib 3333.0 nM
[17] = fulvestrant 20.6 nM, lapatinib 0.0 nM
[18] = fulvestrant 20.6 nM, lapatinib 6.9 nM
[19] = fulvestrant 20.6 nM, lapatinib 20.6 nM
[20] = fulvestrant 20.6 nM, lapatinib 61.7 nM
[21] = fulvestrant 20.6 nM, lapatinib 185.2 nM
[22] = fulvestrant 20.6 nM, lapatinib 555.6 nM
[23] = fulvestrant 20.6 nM, lapatinib 1666.7 nM
[24] = fulvestrant 20.6 nM, lapatinib 3333.0 nM
[25] = fulvestrant 61.7 nM, lapatinib 0.0 nM
[26] = fulvestrant 61.7 nM, lapatinib 6.9 nM
[27] = fulvestrant 61.7 nM, lapatinib 20.6 nM
[28] = fulvestrant 61.7 nM, lapatinib 61.7 nM
[29] = fulvestrant 61.7 nM, lapatinib 185.2 nM
[30] = fulvestrant 61.7 nM, lapatinib 555.6 nM
[31] = fulvestrant 61.7 nM, lapatinib 1666.7 nM
[32] = fulvestrant 61.7 nM, lapatinib 3333.0 nM
[33] = fulvestrant 185.2 nM, lapatinib 0.0 nM
[34] = fulvestrant 185.2 nM, lapatinib 6.9 nM
[35] = fulvestrant 185.2 nM, lapatinib 20.6 nM
[36] = fulvestrant 185.2 nM, lapatinib 61.7 nM
[37] = fulvestrant 185.2 nM, lapatinib 185.2 nM
[38] = fulvestrant 185.2 nM, lapatinib 555.6 nM
[39] = fulvestrant 185.2 nM, lapatinib 1666.7 nM
[40] = fulvestrant 185.2 nM, lapatinib 3333.0 nM
[41] = fulvestrant 555.6 nM, lapatinib 0.0 nM
[42] = fulvestrant 555.6 nM, lapatinib 6.9 nM
[43] = fulvestrant 555.6 nM, lapatinib 20.6 nM
[44] = fulvestrant 555.6 nM, lapatinib 61.7 nM
[45] = fulvestrant 555.6 nM, lapatinib 185.2 nM
[46] = fulvestrant 555.6 nM, lapatinib 555.6 nM
[47] = fulvestrant 555.6 nM, lapatinib 1666.7 nM
[48] = fulvestrant 555.6 nM, lapatinib 3333.0 nM
[49] = fulvestrant 1666.7 nM, lapatinib 0.0 nM
[50] = fulvestrant 1666.7 nM, lapatinib 6.9 nM
[51] = fulvestrant 1666.7 nM, lapatinib 20.6 nM
[52] = fulvestrant 1666.7 nM, lapatinib 61.7 nM
[53] = fulvestrant 1666.7 nM, lapatinib 185.2 nM
[54] = fulvestrant 1666.7 nM, lapatinib 555.6 nM
[55] = fulvestrant 1666.7 nM, lapatinib 1666.7 nM
[56] = fulvestrant 1666.7 nM, lapatinib 3333.0 nM
[57] = fulvestrant 3333.0 nM, lapatinib 0.0 nM
[58] = fulvestrant 3333.0 nM, lapatinib 6.9 nM
[59] = fulvestrant 3333.0 nM, lapatinib 20.6 nM
[60] = fulvestrant 3333.0 nM, lapatinib 61.7 nM
[61] = fulvestrant 3333.0 nM, lapatinib 185.2 nM
[62] = fulvestrant 3333.0 nM, lapatinib 555.6 nM
[63] = fulvestrant 3333.0 nM, lapatinib 1666.7 nM
[64] = fulvestrant 3333.0 nM, lapatinib 3333.0 nM

FC(F)(F)c1ccc2c(SCCCCCCn3cnc(CN4CCOCC4)c3)ccnc2c1 [Compound 0032661, 4-[[1-[6-[[7-(trifluoromethyl)-4-quinolyl]sulfanyl]hexyl]imidazol-4-yl]methyl]morpholine] was tested, and the viability at 5 µM (32661 5 μM, fulvestrant 3333.0 nM, lapatinib 3333.0 nM) was 1%, the viability at 7.5 µM [1] was 84% and the viability at 7.5 µM [2] was 76%. It also gave a viability at 7.5 µM [3] of 74%, a viability at 7.5 µM [4] of 65% and a viability at 7.5 µM [5] of 50%. For the same compound, the viability at 7.5 µM [6] was 30%, the viability at 7.5 µM [7] was 14% and the viability at 7.5 µM [8] was 12%. The viability at 7.5 µM [9] was 81%, the viability at 7.5 µM [10] was 72% and the viability at 7.5 µM [11] was 71%. For the same compound, the viability at 7.5 µM [12] was 64%, the viability at 7.5 µM [13] was 52% and the viability at 7.5 µM [14] was 27%. For the same compound, the viability at 7.5 µM [15] was 12%, the viability at 7.5 µM [16] was 9% and the viability at 7.5 µM [17] was 75%. It also gave a viability at 7.5 µM [18] of 73%, a viability at 7.5 µM [19] of 67% and a viability at 7.5 µM [20] of 62%. It also gave a viability at 7.5 µM [21] of 50%, a viability at 7.5 µM [22] of 23% and a viability at 7.5 µM [23] of 12%. The viability at 7.5 µM [24] was 4%, the viability at 7.5 µM [25] was 76% and the viability at 7.5 µM [26] was 66%. For the same compound, the viability at 7.5 µM [27] was 61%, the viability at 7.5 µM [28] was 58% and the viability at 7.5 µM [29] was 52%. For the same compound, the viability at 7.5 µM [30] was 24%, the viability at 7.5 µM [31] was 12% and the viability at 7.5 µM [32] was 4%. For the same compound, the viability at 7.5 µM [33] was 74%, the viability at 7.5 µM [34] was 64% and the viability at 7.5 µM [35] was 61%. For the same compound, the viability at 7.5 µM [36] was 54%, the viability at 7.5 µM [37] was 48% and the viability at 7.5 µM [38] was 24%. It also gave a viability at 7.5 µM [39] of 10%, a viability at 7.5 µM [40] of 5% and a viability at 7.5 µM [41] of 76%. For the same compound, the viability at 7.5 µM [42] was 59%, the viability at 7.5 µM [43] was 52% and the viability at 7.5 µM [44] was 45%. It also gave a viability at 7.5 µM [45] of 38%, a viability at 7.5 µM [46] of 19% and a viability at 7.5 µM [47] of 3%. For the same compound, the viability at 7.5 µM [48] was 1%, the viability at 7.5 µM [49] was 69% and the viability at 7.5 µM [50] was 35%. For the same compound, the viability at 7.5 µM [51] was 28%, the viability at 7.5 µM [52] was 25% and the viability at 7.5 µM [53] was 21%. It also gave a viability at 7.5 µM [54] of 12%, a viability at 7.5 µM [55] of 2% and a viability at 7.5 µM [56] of 0%. The viability at 7.5 µM [57] was 49%, the viability at 7.5 µM [58] was 16% and the viability at 7.5 µM [59] was 13%. It also gave a viability at 7.5 µM [60] of 11%, a viability at 7.5 µM [61] of 7% and a viability at 7.5 µM [62] of 2%. The viability at 7.5 µM [63] was 3%, the viability at 7.5 µM [64] was 1% and the viability at 10 µM [1] was 90%. The viability at 10 µM [2] was 42%, the viability at 10 µM [3] was 38% and the viability at 10 µM [4] was 35%. The viability at 10 µM [5] was 28%, the viability at 10 µM [6] was 28% and the viability at 10 µM [7] was 23%. The viability at 10 µM [8] was 5%, the viability at 10 µM [9] was 90% and the viability at 10 µM [10] was 38%. For the same compound, the viability at 10 µM [11] was 35%, the viability at 10 µM [12] was 33% and the viability at 10 µM [13] was 27%. It also gave a viability at 10 µM [14] of 24%, a viability at 10 µM [15] of 20% and a viability at 10 µM [16] of 3%. It also gave a viability at 10 µM [17] of 89%, a viability at 10 µM [18] of 36% and a viability at 10 µM [19] of 36%. It also gave a viability at 10 µM [20] of 33%, a viability at 10 µM [21] of 28% and a viability at 10 µM [22] of 23%. It also gave a viability at 10 µM [23] of 20%, a viability at 10 µM [24] of 3% and a viability at 10 µM [25] of 86%. It also gave a viability at 10 µM [26] of 37%, a viability at 10 µM [27] of 35% and a viability at 10 µM [28] of 33%. It also gave a viability at 10 µM [29] of 27%, a viability at 10 µM [30] of 23% and a viability at 10 µM [31] of 20%. It also gave a viability at 10 µM [32] of 2%, a viability at 10 µM [33] of 86% and a viability at 10 µM [34] of 33%. The viability at 10 µM [35] was 33%, the viability at 10 µM [36] was 31% and the viability at 10 µM [37] was 24%. The viability at 10 µM [38] was 23%, the viability at 10 µM [39] was 18% and the viability at 10 µM [40] was 1%. It also gave a viability at 10 µM [41] of 81%, a viability at 10 µM [42] of 31% and a viability at 10 µM [43] of 29%. For the same compound, the viability at 10 µM [44] was 29%, the viability at 10 µM [45] was 24% and the viability at 10 µM [46] was 23%. It also gave a viability at 10 µM [47] of 18%, a viability at 10 µM [48] of 1% and a viability at 10 µM [49] of 78%. It also gave a viability at 10 µM [50] of 16%, a viability at 10 µM [51] of 16% and a viability at 10 µM [52] of 15%. For the same compound, the viability at 10 µM [53] was 16%, the viability at 10 µM [54] was 15% and the viability at 10 µM [55] was 7%. It also gave a viability at 10 µM [56] of 0%, a viability at 10 µM [57] of 55% and a viability at 10 µM [58] of 3%. The viability at 10 µM [59] was 3%, the viability at 10 µM [60] was 6% and the viability at 10 µM [61] was 2%. The viability at 10 µM [62] was 2%, the viability at 10 µM [63] was 1% and the viability at 10 µM [64] was 0%.
